# Tested on: Metabolism protein genes
# Assay: DNA chip mRNA expression in yeast, metabolism protein genes (Table 7)
# Format: cell-based, Saccharomyces cerevisiae S288C
# Method: Yeast (Saccharomyces cerevisiae S288C (α SUC2mal mel gap2 CUP1)) were incubated at 25° C. on YPD medium (yeast extract 1%, polypepton 2%, glucose 2%). One of toxic chemical substances was added to the cells at logarithmic growth phase, and the cells were further incubated for two hours. Cells were cultured without any chemical substance in the same condition, and were used as control. Concentrations of the chemical substances were defined to inhibit the growth of the yeast but not lead to death.
# After completion of the incubation, the culture was centrifuged to collect the cells. To the cells, sodium acetate buffer (50 mM sodium acetate, 10 mM EDTA, 1% SDS) was added, and the mixture was shaken at 65° C. for five minutes, followed by returning to room temperature, and obtaining the supernatant, of which the procedures were repeated two times. To the supernatant, ½ amount of a solution of phenol/chloroform was added, and the mixture was centrifuged to give a supernatant, which was added with an equal amount of chloroform, and the mixture was centrifuged to give a supernatant. To the supernatant, an equal amount of isopropanol containing 0.3 M sodium acetate was added, and the mixture was allowed to stand at room temperature for 30 minutes, after which the mixture was centrifuged to give a sediment of the whole RNAs. Seventy % ethanol was added to the sediment, and the mixture was again centrifuged to give a sediment, which was then dried and dissolved in water. mRNA was isolated from the whole RNAs as followings. In view of the fact that a poly A chain is attached to the 3′ terminus of mRNA, a polynucleotide having a poly T structure which was immobilized on the surface of latex beads was used to trap the mRNA, and then the mRNA was washed and eluted with spine column (Oligotex-dT30<Super>mRNA Purification Kit, Takara). Reverse transcription of the mRNA was conducted with a reverse transcriptase (Super Script II Reverse Transcriptase; catalogue No. 18064-014, GibcoBRL) using fluorescence-labeled nucleotides to give cDNAs that were introduced with Cy3-dUTP or Cy5-dUTP during the reverse transcription.
# The labeled cDNAs were dissolved in TE buffer (10mM Tris-HCl/1 mM EDTA, pH8.0), and the solution was dropped on the DNA chip containing the whole genes of yeast (DNA Chip Research Inc. Japan) so that the cDNAs were hybridized on the DNA chip at 65° C. for over 12 hours. The fluoresces intensity of the DNA chip was read with a scanner, and the ratio relative to the fluorescence intensity resulting from the absence of chemical substance was estimated as the following, which is shown in Tables 1 to 9: […]
smiles,measurement,setting,value
"CCCCCCCCCCCCOS(=O)(=O)[O-].[Na+] [(18), sodium lauryl sulfate]",The level of expressed mRNA in the presence of chemical substance/The level of expressed mRNA in the absence of chemical substance,yeast gene YAL012W,0.8
same,The level of expressed mRNA in the presence of chemical substance/The level of expressed mRNA in the absence of chemical substance,yeast gene YAL038W,1.0
same,level of expressed mRNA in the presence/in the absence of chemical substance,yeast gene YBR003W,1.3
same,level of expressed mRNA in the presence/in the absence of chemical substance,yeast gene YBR011C,1.1
same,level of expressed mRNA in the presence/in the absence of chemical substance,yeast gene YBR020W,0.9
same,The level of expressed mRNA in the presence of chemical substance/The level of expressed mRNA in the absence of chemical substance,yeast gene YBR023C,0.9
same,The level of expressed mRNA in the presence of chemical substance/The level of expressed mRNA in the absence of chemical substance,yeast gene YBR029C,0.8
same,The level of expressed mRNA in the presence of chemical substance/The level of expressed mRNA in the absence of chemical substance,yeast gene YBR183W,2.4
same,The level of expressed mRNA in the presence of chemical substance/The level of expressed mRNA in the absence of chemical substance,yeast gene YBR222C,0.9
same,The level of expressed mRNA in the presence of chemical substance/The level of expressed mRNA in the absence of chemical substance,yeast gene YBR256C,3.3
same,The level of expressed mRNA in the presence of chemical substance/The level of expressed mRNA in the absence of chemical substance,yeast gene YCL009C,0.8
same,The level of expressed mRNA in the presence of chemical substance/The level of expressed mRNA in the absence of chemical substance,yeast gene YCL064C,0.3
same,level of expressed mRNA in the presence/in the absence of chemical substance,yeast gene YCR010C,1.5
same,level of expressed mRNA in the presence/in the absence of chemical substance,yeast gene YCR034W,0.7
same,The level of expressed mRNA in the presence of chemical substance/The level of expressed mRNA in the absence of chemical substance,yeast gene YCR048W,0.8
same,The level of expressed mRNA in the presence of chemical substance/The level of expressed mRNA in the absence of chemical substance,yeast gene YCR098C,1.6
same,The level of expressed mRNA in the presence of chemical substance/The level of expressed mRNA in the absence of chemical substance,yeast gene YDL174C,4.0
same,The level of expressed mRNA in the presence of chemical substance/The level of expressed mRNA in the absence of chemical substance,yeast gene YDR019C,1.6
same,level of expressed mRNA in the presence/in the absence of chemical substance,yeast gene YDR050C,2.3
same,level of expressed mRNA in the presence/in the absence of chemical substance,yeast gene YDR073W,2.3
same,level of expressed mRNA in the presence/in the absence of chemical substance,yeast gene YDR123C,1.0
same,level of expressed mRNA in the presence/in the absence of chemical substance,yeast gene YDR178W,2.3
same,level of expressed mRNA in the presence/in the absence of chemical substance,yeast gene YDR277C,1.7
same,level of expressed mRNA in the presence/in the absence of chemical substance,yeast gene YDR284C,1.5
same,level of expressed mRNA in the presence/in the absence of chemical substance,yeast gene YDR345C,1.8
same,The level of expressed mRNA in the presence of chemical substance/The level of expressed mRNA in the absence of chemical substance,yeast gene YDR380W,0.8
same,level of expressed mRNA in the presence/in the absence of chemical substance,yeast gene YDR400W,0.8
same,level of expressed mRNA in the presence/in the absence of chemical substance,yeast gene YDR408C,1.1
same,level of expressed mRNA in the presence/in the absence of chemical substance,yeast gene YDR483W,1.4
same,The level of expressed mRNA in the presence of chemical substance/The level of expressed mRNA in the absence of chemical substance,yeast gene YDR497C,1.8
same,The level of expressed mRNA in the presence of chemical substance/The level of expressed mRNA in the absence of chemical substance,yeast gene YDR502C,0.9
same,The level of expressed mRNA in the presence of chemical substance/The level of expressed mRNA in the absence of chemical substance,yeast gene YDR516C,1.2
same,level of expressed mRNA in the presence/in the absence of chemical substance,yeast gene YEL063C,0.7
same,level of expressed mRNA in the presence/in the absence of chemical substance,yeast gene YER015W,2.6
same,The level of expressed mRNA in the presence of chemical substance/The level of expressed mRNA in the absence of chemical substance,yeast gene YER026C,3.2
same,The level of expressed mRNA in the presence of chemical substance/The level of expressed mRNA in the absence of chemical substance,yeast gene YER053C,2.3
same,The level of expressed mRNA in the presence of chemical substance/The level of expressed mRNA in the absence of chemical substance,yeast gene YER069W,0.9
same,level of expressed mRNA in the presence/in the absence of chemical substance,yeast gene YER081W,1.7
same,The level of expressed mRNA in the presence of chemical substance/The level of expressed mRNA in the absence of chemical substance,yeast gene YER096W,1.2
same,level of expressed mRNA in the presence/in the absence of chemical substance,yeast gene YER120W,1.0
same,The level of expressed mRNA in the presence of chemical substance/The level of expressed mRNA in the absence of chemical substance,yeast gene YER178W,0.9
same,level of expressed mRNA in the presence/in the absence of chemical substance,yeast gene YFL011W,1.0
same,The level of expressed mRNA in the presence of chemical substance/The level of expressed mRNA in the absence of chemical substance,yeast gene YFL014W,8.8
same,The level of expressed mRNA in the presence of chemical substance/The level of expressed mRNA in the absence of chemical substance,yeast gene YFL030W,0.8
same,The level of expressed mRNA in the presence of chemical substance/The level of expressed mRNA in the absence of chemical substance,yeast gene YFL031W,1.1
same,The level of expressed mRNA in the presence of chemical substance/The level of expressed mRNA in the absence of chemical substance,yeast gene YFL056C,1.1
same,The level of expressed mRNA in the presence of chemical substance/The level of expressed mRNA in the absence of chemical substance,yeast gene YFL057C,1.3

# From patent US8192962B2, “Processes for detecting toxic substances” (Daikin Industries, Ltd., priority 2001, dated 2012)
